These results are taken from patent US5118704A, “Substituted 2-aminotetralins useful as dopaminergics” (Whitby Research, Inc., priority 1991, dated 1992).

Usually pKi stands for −log10 of the Ki, conventionally taken in molar units.

Each structure is given as a SMILES string. pKi: −log10 of the molar value. Like-named read-outs stand apart in the source and are kept apart here.

The target of assay [1] is T1, dopamine D1 receptors (Bos taurus, UniProt Q95136).
T1 construct: membranes derived from bovine caudate nuclei assay were employed; from tissue; host or cells: bovine caudate nuclei membranes (brains from a local slaughterhouse)
Put plainly: Radioligand binding to dopamine D1 receptors ([3H]-SCH23390, bovine caudate nuclei membranes). As for the experimental part:
(§1) To test the selectivity and specificity of the present compounds for binding to dopamine receptors, tests were conducted using the following standard procedures.
(§2) To test binding to dopamine receptors, membranes derived from bovine caudate nuclei assay were employed. Bovine brains were obtained fresh from a local slaughterhouse. The caudate nuclei were dissected out and homogenized in Buffer A (50 mM Tris; 1 mM Na2 -EDTA; 5 mM KCl; 1 mM MgCl2; 2 mM CaCl2; pH 7.4) using a Brinkman Polytron. The homogenate was centrifuged at 40,000 × g for 20 minutes and washed once. The pellett was resuspended in Buffer A, incubated at 37° C. for 15 minutes, then centrifuged. The pellet was washed once more, resuspended to a protein concentration of 5-10 mg/ml in Buffer A and frozen at -70° C. until used.
(§3) The following tritiated drugs were used as radioligands for each of the receptors tested: [^3 H]-Spiperone 21-24 Ci/mmol for D2 receptors, [^3 H]-SCH23390 75-85 Ci/mmol for D1 receptors, and [^3 H]-Para aminoclonidine 48-52 Ci/mmol for α2 -adrenergic receptors. The radio-ligands were incubated with various concentrations of competing drug and the appropriate membrane source for periods of time as follows: 75 minutes at room temperature for D2 receptors, 30 minutes at 37° C. for D1 receptors, or 30 minutes at room temperature for α2 receptors. Specific binding was defined using 1μM butaclamol (D2), 1 μM SCH23390 (D1), or 1 μM yohimbine (α2). In addition the D2 assays contained 30 nM ketaserin in order to block the binding of ^3 H-spiperone to 5HT2 receptors.
(§4) The assays were terminated by filtration using a 24-port Brandell cell harvester over filters that had been previously soaked in 0.1% polyethyleneimine, and the filters were washed three times by filtration of cold buffer. The filters were then placed in 5 ml scintillation vials to which 4 ml of Beckman Ready-Protein was then added, and each vial was counted for 2 minutes in a Beckman 3801 scintillation counter calibrated for conversion of cpm to dpm. Binding data were analyzed using the Ligand program of Munson and Rodbard (1980). The results are presented as Ki values if the data were best fitted to a one-site model, or as KH and KL values if a two-site model produced the better fit.

Assay [2] deals with T2, α2-adrenergic receptors (Rattus norvegicus, UniProt P22909).
T2 construct: rat cerebral cortex membranes were employed as a source of receptors; from tissue; host or cells: cerebral cortex membranes of male Sprague Dawley rats
T2 sequence (P22909 1-465): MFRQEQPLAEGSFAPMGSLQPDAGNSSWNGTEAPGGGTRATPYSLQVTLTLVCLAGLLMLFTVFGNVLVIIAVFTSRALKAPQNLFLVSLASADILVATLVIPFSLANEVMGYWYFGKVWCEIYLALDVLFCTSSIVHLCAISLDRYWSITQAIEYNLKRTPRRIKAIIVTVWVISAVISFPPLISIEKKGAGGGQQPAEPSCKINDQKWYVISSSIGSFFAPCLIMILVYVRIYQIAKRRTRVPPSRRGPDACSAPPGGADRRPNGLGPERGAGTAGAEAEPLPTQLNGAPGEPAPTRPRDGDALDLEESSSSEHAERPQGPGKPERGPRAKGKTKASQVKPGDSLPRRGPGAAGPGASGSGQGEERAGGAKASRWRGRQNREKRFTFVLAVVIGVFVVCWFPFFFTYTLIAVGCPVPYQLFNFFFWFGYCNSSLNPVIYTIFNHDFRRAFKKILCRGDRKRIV
Put plainly: Radioligand binding to α2-adrenergic receptors ([3H]-Para aminoclonidine, rat cerebral cortex membranes). How it is done:
as §1
To test binding of the compounds to α2 -adrenergic receptors, rat cerebral cortex membranes were employed as a source of receptors. Male Sprague Dawley rats were killed by decapitation and the brains removed. The cerebral cortices were homogenized in 50 mM Tris; 2 mM MgCl2 (pH 7.4), and centrifuged at 40,000 × g for 10 minutes. The pellet was washed once, resuspended in Tris/MgCl2 and incubated with 8 units/ml adenosine deaminase at 37° C. for 30 minutes. The homogenate was centrifuged, washed once, resuspended to a protein concentration of 5-10 mg/ml and frozen at -70° C. until use.
as §3, §4

The test system of assay [3] is dopamine D2. The following applies: result in words; cited from earlier work.
The target of assay [4] is T3, dopamine D2 receptors (Bos taurus, UniProt P20288).
T3 construct: membranes derived from bovine caudate nuclei assay were employed; from tissue; host or cells: bovine caudate nuclei membranes (brains from a local slaughterhouse)
Put plainly: Radioligand binding to dopamine D2 receptors ([3H]-Spiperone, bovine caudate nuclei membranes). To be noted: for affinity and selectivity for dopamine D2 receptors (in words): result in words. How it is done:
as §1, §2, §3, §4

Assay [5] concerns dopamine receptor. To be noted: prior art, result in words; cited from earlier work.
Where [6] appears, read: [3H]-SCH23390, bovine caudate membranes, 30 minutes at 37° C., read-out: RECEPTOR AFFINITIES Ki, D1 (KL).
Where [7] appears, read: [3H]-Para aminoclonidine, rat cerebral cortex membranes, 30 minutes at room temperature, read-out: RECEPTOR AFFINITIES Ki, α2.
Where [8] appears, read: [3H]-Spiperone, bovine caudate membranes, 75 minutes at room temperature, 30 nM ketaserin, read-out: RECEPTOR AFFINITIES Ki, D2 (KL).

T3 sequence (P20288 whole entry): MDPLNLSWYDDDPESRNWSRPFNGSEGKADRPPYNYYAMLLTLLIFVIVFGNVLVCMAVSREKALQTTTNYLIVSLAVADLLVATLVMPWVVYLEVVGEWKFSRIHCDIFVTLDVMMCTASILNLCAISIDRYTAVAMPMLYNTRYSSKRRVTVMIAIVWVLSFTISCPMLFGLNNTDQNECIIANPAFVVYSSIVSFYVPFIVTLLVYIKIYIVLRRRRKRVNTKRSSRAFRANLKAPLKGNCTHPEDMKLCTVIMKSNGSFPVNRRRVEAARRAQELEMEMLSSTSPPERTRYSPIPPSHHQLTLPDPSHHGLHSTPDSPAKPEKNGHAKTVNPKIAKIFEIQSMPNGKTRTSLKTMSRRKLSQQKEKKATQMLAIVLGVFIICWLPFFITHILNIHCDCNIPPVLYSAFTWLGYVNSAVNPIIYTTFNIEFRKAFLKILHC
T1 sequence (Q95136 whole entry): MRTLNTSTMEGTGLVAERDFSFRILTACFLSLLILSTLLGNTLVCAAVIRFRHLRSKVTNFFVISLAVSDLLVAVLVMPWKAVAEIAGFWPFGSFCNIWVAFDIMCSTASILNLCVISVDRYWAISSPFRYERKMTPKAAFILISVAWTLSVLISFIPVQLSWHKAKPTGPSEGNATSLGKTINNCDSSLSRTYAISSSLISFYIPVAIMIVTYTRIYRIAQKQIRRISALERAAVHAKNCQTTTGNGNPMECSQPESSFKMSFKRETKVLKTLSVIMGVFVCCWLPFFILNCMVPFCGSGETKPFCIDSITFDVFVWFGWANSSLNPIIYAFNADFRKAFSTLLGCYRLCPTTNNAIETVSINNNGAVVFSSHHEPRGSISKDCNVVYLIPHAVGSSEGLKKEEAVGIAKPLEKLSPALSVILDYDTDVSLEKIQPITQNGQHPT

As for `CCCN(CCc1cccs1)C1CCc2c(O)cccc2C1` (racemic) [Example N-0437, reference compound], the pKi in assay [1] is 6.00; in assay [2], 6.72; in assay [4], 6.96. The “dopamine D2 agonist potency (in words)” value in assay [3] is “potent dopamine D2 agonist”.
For the compound `CCCN(CCCn1c(C)ccc1C)C1CCc2c(O)cccc2C1` (stereo not shown) [Example 2], the pKi in assay [1] was 5.57; in assay [2], 5.80; in assay [4], 7.59. Further, the “affinity and selectivity for dopamine D2 receptors (in words)” value in assay [4] (listed as 2,5-dimethyl-N-propyl-N-(1,2,3,4-tetrahydro-5-hydroxy-2-naphthalenyl)-1H-pyrrole) is “high affinity and selectivity for binding to D2 dopamine receptors”; in assay [4] (listed as 6-[[3-(2,5-dimethyl-1H-pyrrol-1-yl)propyl]propylamino-5,6,7,8-tetrahydro-1-napht) it was “high affinity and selectivity for binding to dopamine D2 receptors”.
`CCCN(CCn1c(C)ccc1C)C1CCc2c(O)cccc2C1` (stereo not shown) [Example 4, 6-[[2-(2,5-dimethyl-1H-pyrrol-1-yl)ethyl]propylamino]-5,6,7,8-tetrahydro-1-naphthalenol]: the pKi was 5.00 in assay [1] (setting [6]), 5.85 in assay [2] (setting [7]) and 7.00 in assay [4] (setting [8]).
For the compound `CCCN(CCCN1C(=O)c2ccccc2C1=O)C1CCc2c(O)cccc2C1` (stereo not shown) [Example 10, 2-[3-[propyl(1,2,3,4-tetrahydro-5-hydroxy-2-naphthalenyl)amino]propyl]-1H-isoindole-1,3(2H)-dione], the negative logarithm of the Ki (pKi) is 5.49 in assay [1] (setting [6]), 6.85 in assay [2] (setting [7]) and 5.90 in assay [4] (setting [8]).
For `CCCN(CCCN1Cc2ccccc2C1)C1CCc2c(O)cccc2C1` (stereo not shown) [Example 11, 6-[[3-(1,3-dihydro-2H-isoindol-2-yl)propyl]propylamino]-5,6,7,8-tetrahydro-1-napththalenol], the pKi in assay [1] (setting [6]) is 5.52; in assay [2] (setting [7]) it was 5.95; in assay [4] (setting [8]), 6.14.
The like results for `CCCN(CCN1C(=O)c2ccccc2C1=O)C1CCc2c(O)cccc2C1` (stereo not shown) [Example 13, 2-[2-[propyl(1,2,3,4-tetrahydro-5-hydroxy-2-naphthalenyl)amino]ethyl]-1H-isoindole-1,3(2H)-dione] were, in that order, 4.85, 5.00 and 5.90.
For `CCCN(CCN1Cc2ccccc2C1)C1CCc2c(O)cccc2C1` (stereo not shown) [Example 14, 6[[2-(1,3-dihydro-2H-isoindol-2-yl)ethyl]propylamino]-5,6,7,8-tetrahydro-1-naphthalenol], the pKi in assay [1] (setting [6]) was 5.31; in assay [2] (setting [7]) it was 5.58; in assay [4] (setting [8]) it was 7.28.
Turning to `CN1CCc2cccc3c2[C@H]1Cc1ccc(O)c(O)c1-3` [apomorphine], the “dopaminergic activity (in words)” value in assay [5] is given as “high activity”.
